Measured values reported in ChEMBL document CHEMBL4725251, “Structure-activity relationships of tubulysin analogues” (Bioorg Med Chem Lett, 2020).

Tests used:
L-428 = experiment: Antiproliferative against human L428 cells incubated for 96 hrs by cellTiter-Glo assay; format: functional, cell-based; conditions: L-428, 96 h
Tubulin (Homo sapiens) = Tubulin (Homo sapiens) (UniProt P68371+Q9H4B7+P0DPH7+P68366+Q13509+Q71U36+P04350+Q3ZCM7+P07437+P68363+Q9BQE3+Q6PEY2+Q13885+Q9BVA1+Q9BUF5); experiment: Binding affinity to tubulin (unknown origin) by fluorescence polarization displacement assay; format: protein-complex assay
L-540 = experiment: Antiproliferative against human L540cy cells incubated for 96 hrs by cellTiter-Glo assay; format: functional, cell-based; conditions: L-540, 96 h
[1] = Antiproliferative against human DEL/BVR cells incubated for 96 hrs by cellTiter-Glo assay; format: functional, cell-based
DEL = experiment: Antiproliferative against human DEL cells incubated for 96 hrs by cellTiter-Glo assay; format: functional, cell-based

Structure (SMILES) | EC50 (L-428) | relative binding affinity (RBA) (Tubulin (Homo sapiens)) | EC50 (L-540) | EC50 [1] | EC50 (DEL)
C#CCO[C@H](C[C@H](C(C)C)N(C)C(=O)[C@@H](NC(=O)[C@H]1CCCCN1C)[C@@H](C)CC)c1nc(C(=O)N[C@@H](Cc2ccccc2)C[C@H](C)C(=O)O)cs1 | 0.41 nM | 0.59 | 0.17 nM | – | –
CCO[C@H](C[C@H](C(C)C)N(C)C(=O)[C@@H](NC(=O)[C@H]1CCCCN1C)[C@H](C)CC)c1nc(C(=O)N[C@@H](Cc2ccccc2)C[C@H](C)C(=O)O)cs1 | – | 0.007 | 13 nM | 61 nM | 3 nM
CCO[C@H](C[C@H](C(C)C)N(C)C(=O)[C@@H](NC(=O)[C@H]1CCCCN1C)[C@@H](C)OC)c1nc(C(=O)N[C@@H](Cc2ccccc2)C[C@H](C)C(=O)O)cs1 | – | 0.03 | 6 nM | 66 nM | 1 nM
CCO[C@H](C[C@H](C(C)C)N(C)C(=O)[C@@H](NC(=O)[C@H]1CCCCN1C)[C@@H](C)OC(C)(C)C)c1nc(C(=O)N[C@@H](Cc2ccccc2)C[C@H](C)C(=O)O)cs1 | – | 0.83 | 0.1 nM | 0.4 nM | 0.1 nM
CCO[C@H](C[C@H](C(C)C)N(C)C(=O)[C@@H](NC(=O)C1CN(C)CCN1C)[C@@H](C)CC)c1nc(C(=O)N[C@@H](Cc2ccccc2)C[C@H](C)C(=O)O)cs1 (mixture of isomers) | – | – | > 1000 nM | – | –
C=C(C)CO[C@H](C[C@H](C(C)C)N(C)C(=O)[C@@H](NC(=O)[C@H]1CCCCN1C)[C@@H](C)CC)c1nc(C(=O)N[C@@H](Cc2ccccc2)C[C@H](C)C(=O)O)cs1 | 0.12 nM | 0.43 | 0.06 nM | – | –
CCO[C@H](C[C@H](C(C)C)N(C)C(=O)[C@@H](NC(=O)C12CC(CCN1C)C2)[C@@H](C)CC)c1nc(C(=O)N[C@@H](Cc2ccccc2)C[C@H](C)C(=O)O)cs1 | – | 0.23 | 1 nM | 2 nM | 0.2 nM
CC[C@H](C)[C@H](NC(=O)[C@H]1CCCCN1C)C(=O)N(C)[C@H](C[C@@H](OCc1ccccc1)c1nc(C(=O)N[C@@H](Cc2ccccc2)C[C@H](C)C(=O)O)cs1)C(C)C | 0.57 nM | 0.07 | 0.4 nM | – | –
CCO[C@H](C[C@H](C(C)C)N(C)C(=O)[C@@H](NC(=O)[C@@]1(C)CCCN1C)[C@@H](C)CC)c1nc(C(=O)N[C@@H](Cc2ccccc2)C[C@H](C)C(=O)O)cs1 | – | 0.38 | 1 nM | 2 nM | 0.3 nM
CCO[C@H](C[C@H](C(C)C)N(C)C(=O)[C@@H](NC(=O)[C@H]1CCCCN1C)C1CCC1)c1nc(C(=O)N[C@@H](Cc2ccccc2)C[C@H](C)C(=O)O)cs1 | – | 0.03 | 24 nM | 89 nM | 13 nM
CCO[C@H](C[C@H](C(C)C)N(C)C(=O)[C@@H](NC(=O)[C@H]1CCCCN1C)C(CC)CC)c1nc(C(=O)N[C@@H](Cc2ccccc2)C[C@H](C)C(=O)O)cs1 | – | 0.2 | 1 nM | 4 nM | 0.4 nM
CCO[C@H](C[C@H](C(C)C)N(C)C(=O)[C@@H](NC(=O)[C@H]1[C@@H]2CC[C@@H](C2)N1C)[C@@H](C)CC)c1nc(C(=O)N[C@@H](Cc2ccccc2)C[C@H](C)C(=O)O)cs1 | – | 0.08 | 8 nM | 15 nM | 2 nM
CCO[C@H](C[C@H](C(C)C)N(C)C(=O)[C@@H](NC(=O)[C@H]1CCCCN1C)[C@H](C)OC(C)(C)C)c1nc(C(=O)N[C@@H](Cc2ccccc2)C[C@H](C)C(=O)O)cs1 | – | 0.06 | 81 nM | 123 nM | 17 nM
CCO[C@H](C[C@H](C(C)C)N(C)C(=O)[C@@H](NC(=O)[C@H]1CCCCN1C)C1CCCC1)c1nc(C(=O)N[C@@H](Cc2ccccc2)C[C@H](C)C(=O)O)cs1 | – | 0.45 | 0.2 nM | 1 nM | 0.1 nM
CCO[C@H](C[C@H](C(C)C)N(C)C(=O)CNC(=O)[C@H]1CCCCN1C)c1nc(C(=O)N[C@@H](Cc2ccccc2)C[C@H](C)C(=O)O)cs1 | – | – | 4600 nM | 9600 nM | 3300 nM
CC[C@H](C)[C@H](NC(=O)[C@H]1CCCCN1C)C(=O)N(C)[C@H](C[C@@H](OC(=O)C(C)C)c1nc(C(=O)N[C@@H](Cc2ccccc2)C[C@H](C)C(=O)O)cs1)C(C)C | 0.12 nM | 0.36 | 0.1 nM | – | –
CCO[C@H](C[C@H](C(C)C)N(C)C(=O)[C@@H](NC(=O)[C@H]1CCCCN1C)[C@H](C)OC)c1nc(C(=O)N[C@@H](Cc2ccccc2)C[C@H](C)C(=O)O)cs1 | – | 0.001 | 5 nM | 17 nM | 1 nM
CC[C@H](C)[C@H](NC(=O)[C@H]1CCCCN1C)C(=O)N(C)[C@H](C[C@@H](OCC(C)=O)c1nc(C(=O)N[C@@H](Cc2ccccc2)C[C@H](C)C(=O)O)cs1)C(C)C | 1 nM | 0.27 | 0.6 nM | – | –
CCCO[C@H](C[C@H](C(C)C)N(C)C(=O)[C@@H](NC(=O)[C@H]1CCCCN1C)[C@@H](C)CC)c1nc(C(=O)N[C@@H](Cc2ccccc2)C[C@H](C)C(=O)O)cs1 | 0.39 nM | 0.68 | 0.13 nM | – | –
CCO[C@H](C[C@H](C(C)C)N(C)C(=O)[C@@H](NC(=O)C1CCC(F)(F)CN1C)[C@@H](C)CC)c1nc(C(=O)N[C@@H](Cc2ccccc2)C[C@H](C)C(=O)O)cs1 (mixture of isomers) | – | 0.07 | 15 nM | 66 nM | 9 nM
CC[C@H](C)[C@H](NC(=O)[C@H]1CCCCN1C)C(=O)N(C)[C@H](C[C@@H](OC)c1nc(C(=O)N[C@@H](Cc2ccccc2)C[C@H](C)C(=O)O)cs1)C(C)C | 0.48 nM | 0.42 | 0.12 nM | – | –
CCC(=O)O[C@H](C[C@H](C(C)C)N(C)C(=O)[C@@H](NC(=O)[C@H]1CCCCN1C)[C@@H](C)CC)c1nc(C(=O)N[C@@H](Cc2ccccc2)C[C@H](C)C(=O)O)cs1 | 0.04 nM | 0.97 | 0.06 nM | – | –
CCO[C@H](C[C@H](C(C)C)N(C)C(=O)[C@@H](NC(=O)[C@H]1CCCCN1C)[C@@H](C)CC)c1nc(C(=O)N[C@@H](Cc2ccccc2)C[C@H](C)C(=O)O)cs1 | 0.13 nM | 0.27 | 0.4 nM | 1 nM | 0.04 nM
CCO[C@H](C[C@H](C(C)C)N(C)C(=O)[C@H](C)NC(=O)[C@H]1CCCCN1C)c1nc(C(=O)N[C@@H](Cc2ccccc2)C[C@H](C)C(=O)O)cs1 | – | 0.03 | 110 nM | 420 nM | 21 nM
CCO[C@H](C[C@H](C(C)C)N(C)C(=O)[C@@H](NC(=O)[C@H]1CCCCN1C)C1CCCCC1)c1nc(C(=O)N[C@@H](Cc2ccccc2)C[C@H](C)C(=O)O)cs1 | – | 0.4 | 1 nM | 6 nM | 0.2 nM
C=CCO[C@H](C[C@H](C(C)C)N(C)C(=O)[C@@H](NC(=O)[C@H]1CCCCN1C)[C@@H](C)CC)c1nc(C(=O)N[C@@H](Cc2ccccc2)C[C@H](C)C(=O)O)cs1 | 0.15 nM | 0.88 | 0.12 nM | – | –
CC[C@H](C)[C@H](NC(=O)[C@H]1CCCCN1C)C(=O)N(C)[C@H](C[C@@H](OC(=O)CC(C)C)c1nc(C(=O)N[C@@H](Cc2ccccc2)C[C@H](C)C(=O)O)cs1)C(C)C | 0.11 nM | 0.26 | 0.06 nM | – | –
CCCC(=O)O[C@H](C[C@H](C(C)C)N(C)C(=O)[C@@H](NC(=O)[C@H]1CCCCN1C)[C@@H](C)CC)c1nc(C(=O)N[C@@H](Cc2ccccc2)C[C@H](C)C(=O)O)cs1 | 0.05 nM | 0.52 | 0.04 nM | – | –
CC[C@H](C)[C@H](NC(=O)[C@H]1CCCCN1C)C(=O)N(C)[C@H](C[C@@H](OC(C)=O)c1nc(C(=O)N[C@@H](Cc2ccccc2)C[C@H](C)C(=O)O)cs1)C(C)C | 0.04 nM | – | 0.08 nM | – | –
